The values below come from US20080287396A1, “Phosphonated Fluoroquinolones, Antibacterial Analogs Thereof, and Methods for the Prevention and Treatment of Bone and Joint Infections” (TARGANTA THERAPEUTICA INC., priority 2005, published 2008).

Series [1] in a line: Bone powder binding, fluorometric detection. The settings on record: 1 mg/ml compound, bone meal powder 10 mg/ml in PBS, 37° C., 1 h. In outline: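 LC/MS method: 100 μM compound in 0.1 M Tris-HCl pH 7, 0.15 M NaCl shaken 10 min with or without ground rat tibia, centrifuged, unbound compound measured in supernatant. Fluorometric method: 1 mg/ml compound in 10 mg/ml bone meal/PBS, 1 h at 37 °C, pellet washed. Supernatant fluoroquinolone read at 280/465 nm; bound amount taken as input minus recovered.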

Series [2] is described as follows: Regeneration of drug from bone powder-bound prodrug. The format is in vitro ADME. The settings on record: PBS vs serum.
A short description of series [3]: Levels of bisphosphonated prodrugs in rat tibia in vivo. The settings on record: for half-life: female, CD, tibia (bone); for concentration of prodrug present in bone, in words: single IV bolus (49: 18.8; 52: 15.8; 54: 17.4 mg/kg). The protocol: In order to investigate the bone binding and rate of decomposition of bisphosphonated fluoroquinolone prodrugs in vivo, rats were treated with bisphosphonated moxifloxacin prodrug 52 or bisphosphonated gatifloxacin prodrug 49 or 54 and the drug content of their tibiae was analyzed at different time points after injection. Female CD rats (age, 57 to 70 days; n=5/group; Charles River, St-Constant, Canada) were administered a single bolus intravenous (tail vein) dose of compound 49, 52 or 54 (dissolved in 0.85% NaCl) at respectively 18.8 mg/kg (equivalent to 9 mg/kg of 15), 15.8 mg/kg (equivalent to 10 mg/kg of 3) and 17.4 mg/kg (equivalent to 10 mg/kg of 15) of body weight. Animals were humanely sacrificed at specified time points after i.v. dosing to evaluate the levels of 49, 52 or 54 in the bone. Tibiae were recovered by dissection, cleaned from soft tissues, ground using a metal ball mill (Retsch MM301™) and kept at −80° C. before determination of the drug concentration of the bone.
The experimentally obtained ground bone powder was suspended in 5% formic acid in methanol (500 mg/1.6 mL). The mixture was vortexed for 10 min and centrifuged for 10 min at 10 000 g. The resulting pellet was dried, weighed and used for the determination of the amount of bisphosphonated prodrug.
For the dosage of the prodrug in the tibia, the standards, QCs (Quality Controls) and blanks were prepared (in duplicate) as follows: to 20 mg of dry blank tibia powder were added a spiking solution (10 μL) of prodrug and 990 μL of buffer (0.1M tris-HCl, pH 7, 0.15M NaCl); the mixture was vortexed for 10 min (RT), centrifuged for 15 min at 10 000 g (RT), the supernatant discarded and the pellet kept for the cleavage procedure. The range of the standards (6 levels) was from 0.05 to 10 μM and the QC levels were 0.075, 0.75 and 7.5 μM.
To each standard, QC, blank and experimental sample tibia bone pellet (20 mg of dry weight) was added 500 μL 6N NaOH for the cleavage of the prodrug into the drug (moxifloxacin 3 or gatifloxacin 15). After an incubation at 50° C. for 1 hour (for 49) or 2 hours (for 52 and 54), the mixture was acidified with 6N HCl (500 μL) and the internal standard (gatifloxacin 15 for 52 and moxifloxacin 3 for 49 and 54) was added. After a centrifugation of 15 min at 10 000 g (RT), the supernatant was extracted on a Strata™ cartridge (30 mg/l ml), using 100% methanol as the eluent. The eluent was evaporated to dryness under a stream of argon and the dried residue was reconstituted in 200 μL of the mobile phase used in the LC/MS analysis by vortexing for 15 min. After centrifugation for 15 min at 10 000 g, 20 μL of the supernatant was injected into the LC/MS analyser.
The quantity of drug resulting from the cleavage of the prodrug was analyzed on an Agilent 1100™ series LC/MSD trap. The supernatant was injected into a Zorbax™ SB-Aq column (2×30 mm, 3.5μ), using 0.1% formic acid in water: 0.1% formic acid in acetonitrile (85:15) as the mobile phase at a flow rate of 0.3 mL/min. […] The detected ions were determined in single reaction mode (SRM).
For the determination of 52, moxifloxacin 3 was analyzed for m/z 402.2 and the internal standard (gatifloxacin 15) for m/z 376.1→332.1.
For the determination of 49 and 54, gatifloxacin 15 was analyzed for m/z 376.1→332.1 and the internal standard (moxifloxacin 3) was analyzed for m/z 402.2.

[4] abbreviates: rat, single IV bolus (52: 15.8 mg/kg; 54: 17.4 mg/kg), 7-28 days after injection, read-out: half-life of prodrug in bone (tibia) (converted).

Where two headings read alike, the source gives them in different places.

As usually defined, the half-life is how long it takes for the measured level to halve.

For `COc1c(N2C[C@@H]3CCCN[C@@H]3C2)c(F)cc2c(=O)c(C(=O)OCC(=O)NC(P(=O)(O)O)P(=O)(O)O)cn(C3CC3)c12` [Compound 52, (1,1-Bisphosphonomethylcarbamoyl)methyl 1-cyclopropyl-6-fluoro-1,4-dihydro-7-((4aS,7aS)-octahydropyrrolo[3,4-b]pyridin-6-yl)-8-methoxy-4-oxoquinoline-3-carboxylate], the “Binding to bone (%) Fluorescence” value in series [1] was determined as 98.7%. Further, the “effect of the medium (presence or absence of serum) on regeneration rate” value in series [2] is reported as “fairly similar rates”. Further, the half-life in series [3] (rat tibia, IV bolus 15.8 mg/kg, 5 min to 24 h, read-out: half-life for the accumulation process in bone) is < 0.0417 days; in series [3] (setting [4]) it was 20 days. Besides, in series [3] (rat tibia), the “concentration of prodrug present in bone, in words” value is “high concentrations”.

Turning to `COc1c(N2CCNC(C)C2)c(F)cc2c(=O)c(C(=O)OCC(=O)NC(P(=O)(O)O)P(=O)(O)O)cn(C3CC3)c12` (stereo not drawn) [Compound 54, (1,1-Bisphosphonomethylcarbamoyl)methyl 7-(3-methylpiperazin-1-yl)-1-cyclopropyl-6-fluoro-1,4-dihydro-8-methoxy-4-oxoquinoline-3-carboxylate], in series [1], the “Binding to bone (%) Fluorescence” value was determined as 91%. The “effect of the medium (presence or absence of serum) on regeneration rate” value in series [2] was “rate deceleration”. In series [3] (setting [4]), the half-life was 21 days. In addition, the “concentration of prodrug present in bone, in words” value in series [3] (rat tibia) is “high concentrations”.
